The record followed here is paper PMC9866588, “Novel 7-Chloro-4-aminoquinoline-benzimidazole Hybrids as Inhibitors of Cancer Cells Growth: Synthesis, Antiproliferative Activity, in Silico ADME Predictions, and Docking” (Molecules, 2023).

SMILES strings stand for the structures.

Assay type in all cases: cell-based, human
The subject of test [1] is THP-1 (acute monocytic leukemia) cells. The test can be described thus: MTT antiproliferative assay, THP-1. How it is done: (§1) The growth inhibition activity was assessed according to the slightly modified procedure performed at the National Cancer Institute, Developmental Therapeutics Program.
(§2) The examined compounds were dissolved in DMSO (1 × 10^−2 M). The experiments were carried out on seven human tumor cell lines and a normal cell line. The following cell lines were used: HeLa (human cervical adenocarcinoma; purchased from ATCC), CaCo-2 (human colorectal adenocarcinoma), MCF-7 (human breast adenocarcinoma), CCRF-CEM (human acute lymphoblastic leukemia), Hut78 (T-cell lymphoma), THP-1 (acute monocytic leukemia), Burkitt lymphoma (Raji), and MDCK1 (Madine–Darby canine kidney). The MDCK1 cells were used between 24 and 26 passages.
(§3) The adherent cells were cultured in Dulbecco’s modified Eagle medium—DMEM (Gibco, Termo Fisher Scientific Inc., Leicestershire, England, UK), supplemented with 10% heat-inactivated fetal bovine serum (FBS, Gibco, Termo Fisher Scientific Inc., Leicestershire, England, UK), 2 mM glutamine, and 100U/0.1mg penicillin/streptomycin. The cells in suspension were cultured in RPMI 1640 (Gibco, Termo Fisher Scientific Inc., Leicestershire, England, UK) medium, supplemented with 10% FBS (Gibco, Termo Fisher Scientific Inc., Leicestershire, England, UK), 2 mM glutamine, 1 mM sodium pyruvate, and 10 mM HEPES. The cells were grown in a humidified atmosphere under the conditions of 37 °C/5% of CO2 gas in the CO2 incubator (IGO 150 CELLlife^TM, JOUAN, Thermo Fisher Scientific, Waltham, MA, USA).
(§4) The adherent cells (HeLa, CaCo-2, MCF-7, and MDCK-1) were plated in 96-well flat bottom plates (Greiner, Frickenhausen, Austria) at a concentration of 2 × 10^4 cells/mL. The suspension cells (Raji, THP-1, CCRF-CEM and Hut78) were plated in 96-well microtiter plates (Sarstead, Newton, NC, USA) at a concentration of 1 × 10^5 cells/mL. Twenty-four hours later, the cells were treated with test agents in […] and incubated for a further 72 h. The working dilutions were freshly prepared on the day of testing. The solvent was also tested for eventual inhibitory activity by adjusting its concentration to be the same as in the working concentrations. After 72 h of incubation, the cell growth rate was evaluated by performing the MTT assay, which detects dehydrogenase activity in viable cells. For this purpose, upon completion of the incubation period, the growth medium was discarded and 50 μL of MTT was added to each well at a concentration of 5 mg/mL. After four hours of incubation at 37 °C, the water insoluble MTT-formazan crystals were dissolved in 150 μL of dimethyl-sulfoxide (DMSO) for the adherent cells and in 10% SDS with 0.01 mol/L HCl for the cells grown in suspension. The absorbance (OD, optical density) was measured on a microplate reader (iMark, BIO RAD, Hercules, CA, USA) at 595 nm.
(§5) The percentage of live cells was calculated as follows: % = OD (sample) − OD (background)/OD (control) − OD (background) × 100.
(§6) The optical density (OD) of the background for the adherent cells is the OD of the MTT solution and DMSO; the OD (background) for the suspension cells is the OD of the culture medium with MTT and 10% SDS with 0.01 mol/L HCl; the OD (control) is the OD of the cells grown without the tested compounds.
(§7) The calculation of the GI50 value curves and QC analysis was performed using the Excel tools and GraphPadPrism software (La Jolla, CA, USA), v. 5.03. Briefly, individual concentration effect curves are generated by plotting the logarithm of the concentration of the tested compounds (X) vs. the corresponding percent inhibition values (Y) using the least squares fit. The best-fit GI50 values are calculated using log (inhibitor) versus normalized response—variable slope equation, where Y Ľ 100/(1 ţ 10 ((LogIC50 _ X) × HillSlope)). The QC criteria parameters (Z0, S:B, R2, HillSlope) were checked for every GI50 curve.
For orientation: Tetrazolium dyes change colour on reduction, which living cells bring about.

Test [2] has as its system Raji (Burkitt lymphoma) cells. As to the kind of experiment: MTT antiproliferative assay, Raji. The note with it: Homo sapiens, Raji; 72 h, MTT, mean ± SD of three independent experiments. How it is done: as §1, §2, §3, §4, §5, §6, §7
A further test has as its system THP-1 cells. As to the kind of experiment: Flow cytometry analysis of cell cycle, THP-1. As to conditions: THP-1, 5 μM, 24 h. As to the method: To analyze the effects of the selected compounds (5d, 8d, and 12d) on the cell cycle of the HuT78 and THP-1 cells, the cells were seeded in 6-well plates (5 × 10^5 cells per well) and treated for 24 h with the selected compounds 5d and 12d (5 μM). The cells were then collected and fixed in cold 70% ethanol. The fixed samples were stained with 15 µg/mL of propidium iodide (PI) at room temperature and analyzed by flow cytometry (FACS Canto II, BD Biosciences). The results were analyzed using FlowLogic software.
One-way ANOVA analysis of variance was performed in the MedCalc statistical program for the analysis of the cell cycle. p-values of less than 0.05 were considered to be statistically significant.
On the technique in general: A flow cytometer gives signals particle by particle.

In another test the test system is HuT78 cells. The test can be described thus: Mitochondrial membrane potential (∆Ψm), TMRE flow cytometry. The note with it: HuT78, 5 μM, 24 h. As to the method:
Changes in the (∆Ψm) were measured using TMRE (tetramethylrhodamine, ethyl ester and perchlorate) dye. In brief, the tested cells (HuT 78) were plated in 6-well plates at a concentration of 5 × 10^5 cells per well and treated with 5 μM of the compounds 5d and 12d. After 24 h of treatment, the cells were collected, centrifuged for 6 min at 1100 rpm, and stained with 200 nM of TMRE dye according to the kit protocol (TMRE Mitochondrial Membrane Potential Assay Kit, abcam, Cambridge, UK). The positive control cells were treated with 20 μM FCCP (carbonyl cyanide-p-trifluoromethoxyphenylhydrazone) for 10 min. The cells were analyzed by flow cytometry (BD FACSCalibur, Becton Dickinson, San Jose, CA, USA) and FlowJo software (FlowJo, LLC, Ashland, OR, USA).

For the molecule `Clc1ccc2c(Nc3cccc(-c4nc5ccccc5[nH]4)c3)ccnc2c1` [Compound 5d, N-(3-(1H-benzo[d]imidazol-2-yl)phenyl)-7-chloroquinolin-4-amine], in test [1] (Homo sapiens, THP-1, 72 h, MTT, mean ± SD of three independent experiments, read-out: GI50 THP1), the concentration for 50% growth inhibition (GI50) (usually the concentration that inhibits growth by half) amounted to 0.6 ± 0.3 µM. Also, the “tumor selectivity index (SI) THP1” value in test [1] (with respect to MDCK1 cells) is 34. Halving of growth in test [2] (GI50) required 4.3 ± 1.2 µM. In the test with THP-1 cells, the “proportion of polyploid giant cancer cells” value is reported as “increased proportion”. In addition, in the test with THP-1 cells (vs control), the “decrease in G0/G1 phase” value is reported as 4.5 times, the “increase in G2/M phase” value came out at 62.8% and the “increase of cells in subG0/G1 phase” value was found to be 2.9 times. For the same molecule, the “cells with mitochondrial membrane disruption / change in ∆Ψm” value in the test on HuT78 cells was 23.9%.
